Reference: publication PMC12410356 (International Journal for Parasitology: Drugs and Drug …, 2025)

Tests used:
[1] = test system: E. multilocularis metacestode vesicles; assay: Phosphoglucose isomerase (PGI) release assay (damage-marker release) on metacestode vesicles; type: cell-based, Echinococcus multilocularis; settings: 10 μM; for PGI d5 (relative PGI release): 5 days; for PGI d12 (relative PGI release): 12 days
[2] = test system: E. multilocularis metacestode vesicles; assay: Metacestode vesicle viability assay (ATP, CellTiter-Glo); type: cell-based, Echinococcus multilocularis
Protocol: Viability was assessed after 12 days using the same metacestode vesicles as for the PGI release assay. Triton X-100 was added to each well to a final concentration of 0.1 %. Subsequently the metacestode vesicles were broken mechanically and 50 μL of the supernatant was mixed with 50 μL of CellTiter-Glo® buffer (Promega, Dübendorf, Switzerland). Measurements were performed on a HIDEX Sense microplate reader.

[3] = overview screen, singlets, relative to 0.1 % Triton X-100, DMSO subtracted
[4] = overview screen, 10 μM, singlets, 12 days, relative to DMSO control
[5] = confirmation screen, triplicates, mean
[6] = confirmation screen, 10 μM, triplicates, mean, 12 days

SMILES | PGI d5 (relative PGI release) [1, 3] [%] | PGI d12 (relative PGI release) [1, 3] [%] | Viability d12 (relative viability) [2, 4] [%] | PGI d5 (relative PGI release) [1, 5] [%] | PGI d12 (relative PGI release) [1, 5] [%] | Viability d12 (relative viability) [2, 6] [%] | Viability d12 (relative viability) ([2]; 10 µM) [%]
C[C@H](Cn1cnc2c(N)ncnc21)OCP(=O)(O)O [MMV1580478] | 0.0562 | -19.3802 | 132.93 |  |  |  | 
O=C1NC(=O)C(Br)=C1Br [MMV1578554] | 3.162 | 5.51 | 135.147 |  |  |  | 
COc1c(NC(=O)[C@H]2CC[C@@H](COc3ccc([N+](=O)[O-])cc3)CC2)c(F)cc2c(=O)c(C(=O)O)cn(C3CC3)c12 [MMV1633965] | 0.7075 | -11.0947 | 49.6807 |  |  |  | 
O=C(NNC(=S)Nc1ccc(Cl)cc1)c1ccncc1 [MMV1782227] | 3.665 | 72.3585 | 12.3576 | 0.0543 | -0.30 | 83.65 | 
CCCCc1ccc(-c2cc(C(=O)O)cc(-c3ccc(Cl)cc3)n2)cc1 [MMV1580852] | -0.3014 | -1.795 | 95.9921 |  |  |  | 
CN1CCN(c2ccc3[nH]c(-c4ccc5[nH]c(-c6ccc(O)cc6)nc5c4)nc3c2)CC1 [MMV020752] | -2.507 | 7.527 |  |  |  |  | 69.6365
Cc1cc(CCOc2c(C)cc(-c3nnn(C)n3)cc2C)on1 [MMV1782349] | -0.7312 | -0.8271 | 107.625 |  |  |  | 
CCCCCOc1ccc(/C=C2\Oc3c(ccc(O)c3O)C2=O)c(O)c1 [MMV1580851] | 1.174 | -13.3457 | 137.102 |  |  |  | 
COc1ccc(NC(=O)c2cc3ccccn3n2)cc1 [MMV374187] | 0.2305 | 3.37 | 96.2395 |  |  |  | 
O=c1nc(N2CCN(CC3CCCCC3)CC2)sc2c([N+](=O)[O-])cc(C(F)(F)F)cc12 [MMV1578885] | 15.7367 | 89.9274 | 20.6104 | -0.21 | 0.0323 | 97.20 | 
CCC(CC)[C@H](NC(C)=O)[C@@H]1[C@H](O)[C@@H](C(=O)O)C[C@H]1NC(=N)N [MMV1593511] | 0.2364 | -10.4107 | 73.923 |  |  |  | 
Cc1c(N)cccc1Cn1ccc(OCCc2cccs2)cc1=O [MMV1578557] | -0.9531 | -14.0356 | 70.6385 |  |  |  | 
Cc1cc(C)n2nc(C(=O)NS(=O)(=O)c3c(C)cccc3OC(F)(F)F)nc2n1 [MMV1782402] | -1.59 | 1.998 | 179.119 |  |  |  | 
CO[C@@]1(NC(=O)Cc2cccs2)C(=O)N2C(C(=O)O)=C(COC(N)=O)CS[C@@H]21 [MMV1578559] | -1.349 | -7.289 | 75.9823 |  |  |  | 
Nc1cccc(-c2nc(N)nc(NC3Cc4ccccc4C3)n2)c1 [MMV1581555] | 2.438 | -5.225 | 66.1297 |  |  |  | 
CN(C)CCCOc1ccc(-c2ccc3ncc4c(c3c2)n(C2CCOCC2)c(=O)n4C)cn1 [MMV1580483] | -0.0428 | 2.3899 |  |  |  |  | 49.6824
CCCCc1ccc(C(=O)O)nc1 [MMV001726] | -0.06574 | -20.229 | 162.188 |  |  |  | 
CC(C)Nc1ncnc2c1cnn2-c1ccc(Cl)cc1 [MMV108465] | -2.878 | 28.117 | 65.6735 |  |  |  | 
C[Si]1(C)CCN(Cc2cc(-c3ccc(Cl)cc3)n(-c3ccc(Cl)cc3)n2)CC1 [MMV1580843] | -0.6444 | -1.571 | 93.6293 |  |  |  | 
C[C@@]1(O)[C@H](O)[C@@H](CO)O[C@H]1n1ccc2c(N)ncnc21 [MMV1593519] | 0.01923 | 0.1259 | 152.992 |  |  |  | 
O=c1[nH]c(=O)n(Cc2cccc(Oc3ccccc3)c2)cc1Nc1ccccc1 [MMV1782107] | 0.6712 | -19.0475 | 211.334 |  |  |  | 

SMILES | PGI d5 (relative PGI release) [1, 3] [%] | PGI d12 (relative PGI release) [1, 3] [%] | Viability d12 (relative viability) [2, 4] [%] | PGI d5 (relative PGI release) [1, 5] [%] | PGI d12 (relative PGI release) [1, 5] [%] | Viability d12 (relative viability) [2, 6] [%] | Viability d12 (relative viability) ([2]; 10 µM) [%]
COc1ccc(C2CNC(=O)C2)cc1OC1CCCC1 (stereo not drawn) [MMV003738] | -0.5058 | -19.6179 | 180.575 |  |  |  | 
C/C(=N\NC(=O)C1CC1c1ccccc1)c1ccc(NC(=O)c2ccco2)cc1 (stereo not drawn) [MMV1580487] | -1.203 | -0.8271 | 105.695 |  |  |  | 
CC(C)N=c1cc2n(-c3ccc(Cl)cc3)c3ccccc3nc-2cc1Nc1ccc(Cl)cc1 [MMV687800] | 10.9227 | 104.553 | 4.175 | 0.81 | 1.29 | 142.49 | 
CC(C)(C)OC(=O)NCc1ccc(C(=O)N[C@H]2CCOC2=O)cc1 [MMV1581547] | -1.162 | 45.6301 | 30.2259 |  |  |  | 
O=C(O)c1cc(-c2ccc(Br)cc2)nc2ccc(Cl)cc12 [MMV247764] | 0.5774 | -0.4305 | 115.677 |  |  |  | 
CCOCc1nc2c(N)nc3ccccc3c2n1CC(C)(C)O [MMV690547] | 0.01909 | 53.3537 | 9.628 | 0.18 | 0.96 | 159.08 | 
O=C(CCCC(F)(F)F)N1CCC(c2nc(-c3nccs3)no2)CC1 [MMV1582491] | 0.6914 | 59.8611 | 18.4528 | -0.08 | -0.04 | 57.90 | 
O=c1cc(Nc2ccc3ccccc3c2)[nH]c(=O)[nH]1 [MMV1581546] | -1.553 | -12.1764 | 58.2809 |  |  |  | 
O=C(NO)C1(CS(=O)(=O)c2ccc(Oc3ccc(Cl)cc3)cc2)CCOCC1 [MMV690706] | 0.06885 | -1.025 | 178.089 |  |  |  | 
CC(C)n1cnc2c(NCc3ccccc3)nc(NCc3ccccc3)nc21 [MMV1579780] | 13.6684 | 58.0803 | 34.6202 |  |  |  | 
CCC[C@H](NC(=O)[C@@H]1[C@H]2CCC[C@H]2CN1C(=O)[C@@H](NC(=O)[C@@H](NC(=O)c1cnccn1)C1CCCCC1)C(C)(C)C)C(=O)C(=O)NC1CC1 [MMV1580494] | 0.1247 | -0.8271 | 83.9614 |  |  |  | 
CC1CCc2c(N3CCC(O)CC3)c(F)cc3c(=O)c(C(=O)O)cn1c23 (stereo not drawn) [MMV637659] | -2.748 | -5.473 |  |  |  |  | 137.188
O=C(O)C(Cc1c[nH]c2ccccc12)N1C(=O)c2ccccc2C1=O (stereo not drawn) [MMV452821] | 1.873 | 0.986 | 132.36 |  |  |  | 
CCCC(=O)OCCc1ccccc1 [MMV1578899] | -0.4977 | -12.5447 | 64.2092 |  |  |  | 
Cc1nc2ccc(Cl)cc2c(-c2ccccc2)c1CC(=O)O [MMV1580801] | 6.482 | 83.9153 | 42.503 |  |  |  | 
Cc1oncc1C(=O)Nc1ccc(C(F)(F)F)cc1 [MMV003291] | 0.3849 | -17.479 |  |  |  |  | 99.9529
CC#C[C@]1(O)CC[C@H]2[C@@H]3CCC4=CC(=O)CCC4=C3[C@@H](c3ccc(N(C)C)cc3)C[C@@]21C [MMV003297] | -0.9731 | -0.6398 |  |  |  |  | 92.6641
NC(=O)c1ccccc1NC(=O)c1ccc(C(=O)Nc2ccccc2C(N)=O)cc1 [MMV508427] | -1.548 | -12.1939 | 83.3301 |  |  |  | 
CCC(C)n1ncn(-c2ccc(N3CCN(c4ccc(OCC5COC(Cn6cncn6)(c6ccc(Cl)cc6Cl)O5)cc4)CC3)cc2)c1=O (stereo not drawn) [MMV637528] | -2.417 | -24.1326 | 37.4902 |  |  |  | 
CN(Cc1ccc(C(C)(C)C)cc1)Cc1cccc2ccccc12.Cl [MMV637104] | -1.862 | -24.2411 | 73.8114 |  |  |  | 
Cl.N=C(N)c1ccc(COc2ccc(Cl)cc2)cc1 [MMV1579844] | -0.5727 | 10.4621 | 5.845 |  |  |  | 
